For 1 compound, IC50 results are on record in patent publication US7919486B2, “Use of gallium(III) complexes for the treatment of melanomas” (Niiki Pharma Inc., priority 2007, dated 2011).

One data set has as its system SK-MEL-28. Put plainly: cytotoxic activity in cell culture on melanoma cell line SK-MEL-28. Format: cell-based. As to conditions: SK-MEL-28 melanoma cell line obtained from human tumors. As for the experimental part: (§1) The compound of tris(hydroxyquinolinolato)gallium(III) was analyzed with respect to its cytotoxic activity in the cell culture on the melanoma cell lines obtained from human tumors.

The next data set concerns SK-MEL-5. As to the kind of experiment: cytotoxic activity in cell culture on melanoma cell line SK-MEL-5. Format: cell-based. The conditions noted are these: SK-MEL-5 melanoma cell line obtained from human tumors. Here is the method: as §1

Take `c1cnc2c([O][Ga]([O]c3cccc4cccnc34)[O]c3cccc4cccnc34)cccc2c1` [tris(hydroxyquinolinolato)gallium(III)]: the 50% inhibitory concentration (IC50) in the data set on SK-MEL-28 is 35 µM; in the data set with SK-MEL-5, 0.76 µM.
